# Laboratory results as given in patent US6310090A, “Process and product for enhancing immune response in companion animals using a combination of antioxidants” (priority 2000, dated 2001).
# What was measured:
# [1] = tested on: MHC class II expressing lymphocytes; assay: lymphocyte subsets by flow cytometry, lutein supplementation; assay type: cell-based, dog (Beagle); settings: 20 mg lutein, week 8 and 12
# Description: (§3) Fifty six female Beagle dogs (17 to 18 months old; average body weight 11.4±0.4 kg) were randomly assigned to be supplemented daily with 0, 5, 10 or 20 mg lutein for 17 weeks. The lutein contained 76.66% lutein and 5.23% zeaxanthin. The lutein supplement was resuspended in soybean oil to the appropriate concentration and 1 mL administered perorally at 0800 h daily. Food (200 g/dog/d) was offered immediately after the lutein supplementation. […] All dogs were housed in 2×2 m pens (2 dogs/pen) in a temperature (20 to 22° C.) and light (14 h light) controlled facility. Body weight was recorded at weeks 0, 6, and 12.
# (§4) Blood was collected by jugular venipuncture into heparinized evacuated tubes on weeks 0, 2, 4, 8 and 12 and aliquots used for HPLC analysis and for assessing immune responses.
# (§5) Blood leukocytes were separated using Histopaque-1119 (Sigma, St. Louis, Mo.). Cells were washed three times with phosphate-buffered saline (PBS, pH 7.4) and contaminating erythrocytes were lysed in NH4 CI (8.4 g/L). Lymphocyte subsets were determined by flow cytometry (FACScan, Becton Dickinson, San Jose, Calif.). […]
# (§6) Appropriate negative controls were included to correct for background fluorescence. Data were expressed as the percentage of positive-staining cells corrected for cells stained nonspecifically with the secondary antibody.
# CD21+ B cells = assay: as above; assay type: cell-based, dog (Beagle); settings: dietary lutein
# Description: as §3, §4, §5, §6
# [2] = tested on: peripheral blood mononuclear cells (PBMC); assay: mitogen-induced PBMC proliferation, lutein supplementation; assay type: cell-based, dog (Beagle)
# Description: Blood collected on weeks 0, 2, 4, 8 and 12 were used to assess mitogen-induced lymphocyte proliferation by peripheral blood mononuclear cells (PBMC). Whole blood culture was used in order to mimic in vivo conditions. Mitogens used were phytohemagglutinin (PHA), concanavalin A (Con A) and pokeweed mitogen (PWM). Whole blood was thoroughly mixed and then diluted 1:12 with RPMI-1640 containing 25 mM of Hepes, penicillin (100 U/mL) and streptomycin (100 μg/mL) (Sigma, St. Louis, Mo.). […] Triplicate 150 μL volumes were pipetted into 96-well round bottom plates and 50 μl of the appropriate mitogens added. The final concentrations of the mitogens in culture were 2 and 10 μg/mL for PHA, 1 and 5 μg/mL for Con A and 0.5 and 2.5 μg/mL for PWM. The two mitogen concentrations gave maximum (the higher mitogen concentration) and suboptimal (lower mitogen concentration) proliferative responses in preliminary studies using blood from similar animals. The mixture was incubated for 72 h at 37° C. in a humidified incubator under a 5% CO2 atmosphere. Four hours prior to the termination of the incubation period, 20 μL of [^3 H]-thymidine (1 [μCi/well) were added. Cells were harvested onto fiberglass filters and radioactivity was counted by liquid scintillation. Proliferation response of PBMC was expressed as stimulation index (cpm of stimulated cultures/cpm of unstimulated cultures).
# mouse splenocytes = settings: dietary lutein; cited from earlier work
# [3] = tested on: plasma lipid peroxidation (malondialdehyde); assay: plasma lipid peroxidation (TBARS) assay, lutein supplementation; assay type: in vivo, dog (Beagle)
# Description: Plasma lipid peroxidation activity was determined by measuring malondialdehyde (MDA) production. The standard used was 1,1,3,3-tetramethoxypropane JMP) (Sigma Chem. Co., St. Louis, Mo.). Duplicate 500 μL plasma samples were pipetted into 15 ml, glass tubes and 3 mL of 10 g/L phosphoric acid and 1 ml of 6 g/L TBA solution were added. The mixture was boiled in a water bath for 45 minutes. Tubes were allowed to cool and the TBA-MDA complex was extracted with 4 ml of n-butanol. The butanol layer was separated by centrifugation at 1,000×g for 10 minutes and absorbance was measured on at 532 nm (Beckman, Fullerton, Calif.). The TBARS activity was expressed in nmole MDA/L plasma.
# [4] = tested on: CD8+ T-cytotoxic/suppressor cells; settings: week 12
# Description: as §3, §4, §5, §6
# [5] = tested on: PHA (nonspecific antigen); assay: delayed type hypersensitivity response (skin induration) to PHA, lutein supplementation; assay type: in vivo, dog (Beagle)
# Description: (§1) Skin induration response was assessed in all dogs on weeks 0, 6, and 12. Dogs were injected intradermally in the flank area with saline (8.5 g/L; control), an attenuated polyvalent vaccine containing canine distemper virus, canine adenovirus type-2, canine parainfluenza virus and parvovirus (Vanguard 5, Smithkline Beacham, West Chester, Pa.; specific antigen), and PHA (0.5 g/L; nonspecific antigen). The doses of vaccine and PHA used were previously determined to provide optimal skin response in Beagle dogs of similar age. The injection site was clipped and wiped with 70% ethyl alcohol. The injection volume was 100 μL. Skin induration was measured at 0, 24, 48 and 72 h post-injection with the aid of a pressure-sensitive digital micrometer (Mitsutoyo, Tokyo, Japan) and response was expressed as a percentage of skin thickness measured at 0 h.
# IgG = IgG by single radial immunodiffusion, lutein supplementation; assay type: in vivo, dog (canine)
# Description: (§2) Serum collected on weeks 0, 2, 4, 8 and 12 were analyzed for IgG and IgM concentrations by single radial immunodiffusion (SRID). In addition, all dogs were vaccinated with the polyvalent vaccine (Vanguard 5, Smithkline Beacham, West Chester, Pa.) on week 13 and again on week 15 to study the possible anamnestic effect of dietary lutein. Blood was collected weekly from week 13 through week 17. Goat antiserum to canine IgG (10%, whole molecule) or IgM (7.5%, μ chain specific) (ICN, Aurora, Ohio) was mixed with melted agarose (10 g/L in PBS; Sigma Chem. Co., St. Louis, Mo.) and the mixture solidified in SRID plates. Duplicate 5 μL volumes of serum or IgG (0, 2.88, 5.75, 11.5 and 23.0 mg/ml) or IgM (0, 0.25, 0.5, 1.0 and 2.0 mg/ml) standard were loaded into the wells. After incubating for 24 hours at room temperature in a humidified chamber, ring diameters were measured using a SRID reader (Transidyne General Corp., Ann Arbor, Minn.).
# IgM = IgM by single radial immunodiffusion, lutein supplementation; assay type: in vivo, dog (canine); settings: after revaccination on week 15
# Description: as §2
# [6] = tested on: canine thyroid adenocarcinoma cells
# Description: Fifty six female Beagle dogs (17 to 18 months old; average body weight 11.4±0.4 kg) were randomly assigned to be supplemented daily with 0, 5, 10 or 20 mg lutein for 17 weeks. The lutein contained 76.66% lutein and 5.23% zeaxanthin. The lutein supplement was resuspended in soybean oil to the appropriate concentration and 1 mL administered perorally at 0800 h daily. Food (200 g/dog/d) was offered immediately after the lutein supplementation. The basal diet met or exceeded the requirements for all essential nutrients (NRC 1985). All dogs were housed in 2×2 m pens (2 dogs/pen) in a temperature (20 to 22° C.) and light (14 h light) controlled facility. Body weight was recorded at weeks 0, 6, and 12.
# as §4
# Canine thyroid adenocarcinoma cells were used as target cells in assessing NK cell cytotoxic activity. […] Target cells were cultured in a T75 flask with 20 mL minimum essential medium (MEM; Sigma Chem. Co., St. Louis, Mo.) supplemented with 10% fetal calf serum (FC S), 100 U/mL of penicillin and 100 μg/mL of streptomycin. […] Optical density was measured at 570 nm using a microplate reader. The percentage of NK cell-specific lysis was calculated as follows: […]
# [7] = tested on: polyvalent vaccine (specific antigen); assay: delayed type hypersensitivity response to vaccine / vaccine recognition, lutein supplementation; assay type: in vivo, dog (Beagle)
# Description: as §1
# IL-2 = IL-2 production by PHA-stimulated PBMC in whole blood cultures, lutein supplementation; assay type: cell-based, dog (canine)
# Description: Whole blood was diluted 1:2 with RPMI-1640 supplemented with Hepes and antibiotics (described earlier) and 400 μL of diluted blood were pipetted into 48-well plates (Costar, Cambridge, Mass.). Cells were stimulated with PHA (400 μL of a 5 μg/mL solution) for 48 hours at […] in a 5% CO2 atmosphere. The plates were centrifuged at 200×g for 10 minutes and the supernatant was frozen at -80° C. The IL-2 content of the culture supernatant was determined in triplicate by ELISA (Intergen, Purchase, N.Y.). The polyclonal anti-human IL-2 cross-reacted with canine IL-2 and recombinant human IL-2 was used as the standard.
# immune system = assay: summary of the results from each of the studies (Table 1); assay type: in vivo, dog
# CD4+ T-helper cells = assay: lymphocyte subsets by flow cytometry, lutein supplementation; assay type: cell-based, dog (Beagle); settings: 5 and 10 mg lutein, week 12
# Description: as §3, §4, §5, §6
# CD5+ total T cells = assay: as above; assay type: cell-based, dog (Beagle); settings: weeks 4 and 8, dogs fed lutein
# Description: as §3, §4, §5, §6
# [8] = averaged across all treatments and all periods
smiles,measurement,setting,value
CC1=C[C@H](O)CC(C)(C)[C@H]1/C=C/C(C)=C/C=C/C(C)=C/C=C/C=C(C)/C=C/C=C(C)/C=C/C1=C(C)C[C@@H](O)CC1(C)C [lutein],% MHC class II cell populations vs unsupplemented dogs,[1],elevated
same,CD21+ B cell population,CD21+ B cells,did not significantly influence
same,PWM-stimulated PBMC proliferative response,"[2]; 10 mg lutein, week 8",higher proliferative response
same,Con A-stimulated PBMC proliferation,"[2]; 10 mg lutein, weeks 8 and 12, 5 μg/mL Con A",higher PBMC proliferation
same,PWM-stimulated PBMC proliferation vs unsupplemented controls,"[2]; 20 mg lutein, week 8 and 12, both concentrations of PWM",significantly higher PBMC proliferation
same,PHA-stimulated PBMC proliferative response vs unsupplemented dogs,"[2]; 20 mg lutein, weeks 8 (10 pg/mL PHA) and 12 (2 and 10 μg/mL PHA), P<0.01",enhanced
same,Con A-stimulated PBMC proliferation,"[2]; 20 mg lutein, weeks 8 and 12, both concentrations of Con A",higher PBMC proliferation
same,PHA-stimulated PBMC proliferation,"[2]; 5 and 10 mg lutein, week 8, 10 μg/ml PHA",higher PBMC proliferation
same,spontaneous proliferation by unstimulated PBMC,[2]; no mitogen,did not significantly influence
same,PHA-stimulated PBMC response,[2]; weeks 0 and 4,no significant effect
same,"PWM-stimulated PBMC proliferation, treatment difference",[2]; weeks 0 and 4,no significant treatment difference
same,lymphocyte proliferation in mouse splenocytes,mouse splenocytes,enhance lymphocyte proliferation
same,plasma TBARS activity,[3]; averaged across all treatments and periods,95.8±0.1 nmol MDA/L
same,effect on plasma TBARS activity,[3]; lutein supplementation,did not significantly affect
same,CD8+ population,[4],not influenced by the diet
same,"DTH response to PHA, treatment difference","[5]; week 6, 48 and 72 h",no significant treatment difference
same,DTH response to PHA,"[5]; week 6, 24 h post-injection",dose-related DTH response
same,DTH response to PHA vs unsupplemented dogs,"[5]; week 12, 20 mg lutein",significantly higher
same,DTH response to PHA,"[5]; week 12, 24, 48 and 72 h",general dose-dependent increase
same,plasma IgG,"IgG; 5 mg lutein, week 16, after revaccination on week 15, P<0.05",higher
same,plasma IgG,"IgG; 20 mg lutein, week 17, after revaccination on week 15",higher
same,concentration of plasma IgM,IgM,not changed
same,NK cell cytotoxic activity,[6],did not significantly influence
same,specific lysis of target cells by PBMC,"[6]; averaged across all treatments and sampling periods, E:T 10:1",49.1±1.1%
same,plasma retinol concentration,[8],3.63 ± 0.14 µmol/L
same,plasma α-tocopherol concentration,[8],37 ± 2 µmol/L
same,plasma lutein+zeaxanthin vs unsupplemented animals,"dog, in vivo",significantly higher
same,influence on plasma retinol and α-tocopherol,lutein supplementation,did not influence
same,improvement of vaccine recognition,"[7]; FIG. 2, addition of lutein to the diet",≤ 32%
same,DTH response to vaccine,"[7]; week 6, 48 and 72 h post-injection",dose-related
same,DTH response to vaccine,"[7]; week 6, 24 h",not significant
same,DTH response to vaccine,[7]; week 12,no significant dietary effect
same,concentrations of IL-2 in culture medium,"IL-2; averaged throughout the study, all treatments",15.7 ± 0.4 ng/mL
same,production of IL-2 by PHA-stimulated PBMC,IL-2; throughout the experimental period,did not differ significantly
same,Optimize vaccine recognition by the dog,immune system; Table 1,.check mark.
same,Optimize immune cell activity (B-cells),"immune system; Table 1, Lutein column",.check mark.
same,% CD4+ cells,CD4+ T-helper cells,higher
same,percentages of CD5+ cells vs unsupplemented controls,CD5+ total T cells,generally had higher percentages
